Legend:
[1] = target: T1, human indoleamine 2,3-dioxygenase 1 (hIDO1) (Homo sapiens, UniProt P14902); assay: In-vitro human indoleamine 2,3-dioxygenase 1 (IDO1) enzyme assay; type: biochemical; settings: for IC50: hIDO1 enzyme; for inhibition at 1 µM: hIDO1 enzyme at 1.0 μM concentration; for inhibition at 10 µM: hIDO1 enzyme at 10.0 μM concentration
T1 construct: His tag (N); purchased BPS Bioscience, San Diego, Calif., USA; host or cells: E. coli
Protocol: (§1) In-vitro human indoleamine 2,3-dioxygenase 1 (IDO1) enzyme assay: In the in-vitro human indoleamine 2,3-dioxygenase 1 (hIDO1) enzyme assay for screening inhibitor compounds, hIDO1 with an N-terminal histidine tag expressed and purified from E. coli (BPS Bioscience, San Diego, Calif., USA) was used. All other materials were procured from Sigma-Aldrich, St. Louis, Mo., USA.
The assay method for monitoring the conversion of L-tryptophan to N-formylkynurenine by hlDO1 was carried out as follows. hlDO1 (50 ng) was incubated with tryptophan (80 μM) in the presence of ascorbic acid (10 mM), methylene blue (10 μM), catalase (100 μg/ml) and 0.01% Tween-20 in sodium phosphate buffer (50 mM; pH 6.5) at 37° C. for 60 min. The reaction was terminated with 200 mM piperidine (PIP) and further incubated at about 65° C. for about 20 minutes to convert N-formylkynurenine (NFK) to NFK-PIP. The reaction mixture was then incubated at room temperature for about 1 hour. The fluorescence intensity was read in a fluorescence microplate reader at an excitation wavelength of 400 nm and emission wavelength of 500 nm. Percent inhibition at each concentration of test compounds was determined by estimating the decrease in NFK-PIP. Data were analyzed using nonlinear regression to generate IC50 values using Graph Pad Prism® 6.

[2] = target: T2, human tryptophan 2,3-dioxygenase (hTDO) (Homo sapiens, UniProt P48775); assay: In-vitro human tryptophan 2,3-dioxygenase (TDO) enzyme assay; type: biochemical; settings: for inhibition at 1 µM: hTDO enzyme at 1.0 μM concentration; for inhibition at 10 µM: hTDO enzyme at 10.0 μM concentration
T2 construct: His tag (N); purchased BPS Bioscience, San Diego, Calif., USA; host or cells: E. coli
T2 sequence (P48775 whole entry): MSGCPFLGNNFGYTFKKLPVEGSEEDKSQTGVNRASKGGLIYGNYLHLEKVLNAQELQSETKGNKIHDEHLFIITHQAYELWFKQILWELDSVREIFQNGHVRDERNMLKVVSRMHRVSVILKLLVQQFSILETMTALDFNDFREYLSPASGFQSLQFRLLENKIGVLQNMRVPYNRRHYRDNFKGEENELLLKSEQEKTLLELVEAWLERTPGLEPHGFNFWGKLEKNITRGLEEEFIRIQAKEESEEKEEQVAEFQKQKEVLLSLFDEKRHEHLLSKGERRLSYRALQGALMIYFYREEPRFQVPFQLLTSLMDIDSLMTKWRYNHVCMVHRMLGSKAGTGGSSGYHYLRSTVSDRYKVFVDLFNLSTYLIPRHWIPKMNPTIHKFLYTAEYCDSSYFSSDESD
Protocol: as §1, with “In” for “In-vitro human indoleamine 2,3-dioxygenase 1 (IDO1) enzyme assay: In”, “tryptophan” for “indoleamine”, “(hTDO)” for “1 (hIDO1)”, “hTDO” for “hIDO1”
The assay monitoring method for the conversion of L-tryptophan to N-formylkynurenine by hTDO was carried out as follows. hTDO (125 ng) was incubated in the presence of 200 μM L-tryptophan, 100 mM sodium phosphate buffer (pH 7.0), 0.01% Tween-20 and 100 μM ascorbic acid at about 37° C. for about 60 minutes. The reaction was terminated with 200 mM piperidine (PIP) and further incubated at about 65° C. for about 20 minutes to convert N-formylkynurenine (NFK) to NFK-PIP. The reaction mixture was then incubated at room temperature for about 75 minutes. The fluorescence intensity was read in a fluorescence microplate reader at an excitation wavelength of 400 nm and emission wavelength of 500 nm. Percent inhibition at each concentration of test compounds was determined by estimating the decrease in NFK-PIP. Data were analyzed using nonlinear regression to generate IC50 values using Graph Pad Prism® 6.

T1 sequence (P14902 whole entry): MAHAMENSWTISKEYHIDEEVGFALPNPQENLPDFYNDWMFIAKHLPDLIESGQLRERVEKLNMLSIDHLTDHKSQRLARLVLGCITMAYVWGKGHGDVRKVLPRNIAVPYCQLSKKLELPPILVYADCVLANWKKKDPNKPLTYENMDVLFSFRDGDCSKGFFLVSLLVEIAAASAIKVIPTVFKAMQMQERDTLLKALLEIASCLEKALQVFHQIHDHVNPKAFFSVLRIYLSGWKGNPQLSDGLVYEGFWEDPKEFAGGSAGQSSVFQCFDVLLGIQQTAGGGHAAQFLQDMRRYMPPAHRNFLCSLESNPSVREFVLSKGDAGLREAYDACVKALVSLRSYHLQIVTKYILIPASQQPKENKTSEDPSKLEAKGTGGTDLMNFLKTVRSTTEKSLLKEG

SMILES | IC50 [1] | inhibition at 1 µM [1] | inhibition at 10 µM [1] | inhibition at 1 µM [2] | inhibition at 10 µM [2]
CC1=C(c2ccccc2)C(CC(O)C2CCN(C(=O)C3CCCCC3)CC2)n2cncc21 (stereo not shown) [Example 149] | < 500 nM | ≥ 50% | ≥ 50% | ≤ 50% | –
O=C(CC1C2=C(CCCC2)c2cncn21)c1cc(F)ccc1F (stereo not shown) [Example 9] | – | – | ≤ 50% | – | ≥ 50%
CC1=C(c2ccccc2)C(CC(=O)C2CCC(C(=O)Nc3ccc(Cl)cc3C)CC2)n2cncc21 (stereo not shown) [Example 118] | – | ≥ 50% | ≥ 50% | ≥ 50% | –
CC1=C(c2ccccc2)C(CC(=O)c2ccsc2)n2cncc21 (stereo not shown) [Example 45, 2-(7-methyl-6-phenyl-5H-pyrrolo[1,2-c]imidazol-5-yl)-1-(thiophen-3-yl)ethan-1-one] | – | ≤ 50% | ≥ 50% | ≥ 50% | –
CC1=C(c2ccccc2)C(CC(=O)C2CCCCC2)n2cncc21 (stereo not shown) [Example 88, 1-Cyclohexyl-2-(7-methyl-6-phenyl-5H-pyrrolo[1,2-c]imidazol-5-yl)-ethanone] | > 500 nM | – | ≥ 50% | ≥ 50% | ≥ 50%
CC1=C(c2ccccc2)C(CC(O)C2CCN(C(=O)C(C)C)CC2)n2cncc21 (stereo not shown) [Example 187] | > 500 nM | ≥ 50% | ≥ 50% | ≤ 50% | –
COC(=O)c1ccc(C(=O)CC2C(c3ccccc3)=C(C)c3cncn32)cc1 (stereo not shown) [Example 18, 4-[2-(7-Methyl-6-phenyl-5H-pyrrolo[1,2-c]imidazol-5-yl)-acetyl]-benzoic acid methyl ester] | < 500 nM | ≥ 50% | ≥ 50% | ≥ 50% | ≥ 50%
CC1=C(c2ccccc2)C(CC(=O)c2ccc(N3CCOCC3)cc2)n2cncc21 (stereo not shown) [Example 49, 2-(7-methyl-6-phenyl-5H-pyrrolo[1,2-c]imidazol-5-yl)-1-(4-morpholinophenyl)ethan-1-one] | – | ≤ 50% | ≥ 50% | ≥ 50% | –
CC1=C(c2cccc(F)c2)C(CC(=O)c2ccccc2)n2cncc21 (stereo not shown) [Example 15, 2-[6-(3-Fluoro-phenyl)-7-methyl-5H-pyrrolo[1,2-c]imidazol-5-yl]-1-phenyl-ethanone] | – | ≤ 50% | ≥ 50% | – | ≥ 50%
CC1=C(c2ccccc2)C(CC(=O)c2cccc(Br)c2)n2cncc21 (stereo not shown) [Example 68, 1-(3-Bromo-phenyl)-2-(7-methyl-6-phenyl-5H-pyrrolo[1,2-c]imidazol-5-yl)-ethanone] | – | ≥ 50% | ≥ 50% | ≥ 50% | –
CC1=C(c2ccccc2)C(CC(=O)c2ccc(-c3ccc(-c4ccccc4)cc3)cc2)n2cncc21 (stereo not shown) [Example 65] | – | ≤ 50% | ≤ 50% | ≤ 50% | –
CC1=C(c2ccccc2)C(CC(=O)c2ccc(C(=O)O)cc2)n2cncc21 (stereo not shown) [Example 24, 4-[2-(7-Methyl-6-phenyl-5H-pyrrolo[1,2-c]imidazol-5-yl)-acetyl]-benzoic acid] | – | ≤ 50% | ≥ 50% | ≥ 50% | ≥ 50%
CC1=C(c2ccccc2)C(CC(=O)c2cc(F)ccc2F)n2cncc21 (stereo not shown) [Example 36, 1-(2,5-difluorophenyl)-2-(7-methyl-6-phenyl-5H-pyrrolo[1,2-c]imidazol-5-yl)ethan-1-one] | – | ≥ 50% | ≥ 50% | ≥ 50% | ≥ 50%
CC1=C(c2ccccc2)C(CC(=O)C2CCC(C(=O)N3CCC(=O)CC3)CC2)n2cncc21 (stereo not shown) [Example 124] | – | ≤ 50% | ≥ 50% | ≤ 50% | –
CC1=C(c2ccccc2)C(CC(O)C2CCC(O)CC2)n2cncc21 (stereo not shown) [Example 111] | > 500 nM | – | ≥ 50% | – | –
CC1=C(c2ccccc2)C(CC(=O)C2CCC(C(=O)Nc3ccncc3)CC2)n2cncc21 (stereo not shown) [Example 117] | > 500 nM | ≥ 50% | ≥ 50% | ≥ 50% | –
O=C(CC1C2=C(CCCC2)c2cncn21)c1ccccc1 (stereo not shown) [Example 1, 1-Phenyl-2-(6,7,8,9-tetrahydro-5H-imidazo[5,1-a]isoindol-5-yl)-ethanone] | – | – | ≤ 50% | – | ≥ 50%
CC1=C(c2ccccc2)C(CC(=O)c2ccc(C(=O)Nc3ccc(C)cc3C)cc2)n2cncc21 (stereo not shown) [Example 84] | – | ≥ 50% | ≥ 50% | ≥ 50% | –
CC1=C(c2ccccc2)C(CC(O)C23CC4CC(CC(C4)C2)C3)n2cncc21 (stereo not shown) [Example 108] | – | ≥ 50% | ≥ 50% | ≥ 50% | –

SMILES | IC50 [1] | inhibition at 1 µM [1] | inhibition at 10 µM [1] | inhibition at 1 µM [2] | inhibition at 10 µM [2]
CC1=C(c2ccccc2)C(CC(=O)c2ccc(C(=O)Nc3ccc(Cl)cc3)cc2)n2cncc21 (stereo not shown) [Example 80] | – | ≥ 50% | ≥ 50% | ≥ 50% | –
O=C(CC1C2=C(CCCC2)c2cncn21)c1cccc(OCc2ccccc2)c1 (stereo not shown) [Example 7] | – | – | ≤ 50% | – | ≥ 50%
CC1=C(c2ccccc2)C(CC(=O)C2CCC(C(=O)Nc3ccc(F)cc3F)CC2)n2cncc21 (stereo not shown) [Example 110] | – | ≤ 50% | ≥ 50% | ≥ 50% | –
COC(=O)[C@H]1CC[C@@H]([C@@H](O)CC2C(c3ccccc3)=C(C)c3cncn32)CC1 (stereo partly shown) [Example 131] | < 500 nM | ≥ 50% | ≥ 50% | ≥ 50% | –
CC1=C(c2ccccc2)C(CC(O)C2CCN(C(=O)Nc3ccccn3)CC2)n2cncc21 (stereo not shown) [Example 167] | < 500 nM | ≥ 50% | ≥ 50% | ≤ 50% | –
CC1=C(c2ccccc2)C(CC(O)C2CCN(C(=O)c3ccccn3)CC2)n2cncc21 (stereo not shown) [Example 152] | > 500 nM | ≤ 50% | ≥ 50% | ≤ 50% | –
OC(CC1C(c2ccccc2)=C(c2ccccc2)c2cncn21)C1CCCCC1 (stereo not shown) [Example 103] | – | ≤ 50% | ≤ 50% | ≤ 50% | –
CC1=C(c2ccccc2)C(CC(=O)c2ccc(Oc3ccccc3)cc2)n2cncc21 (stereo not shown) [Example 48, 2-(7-methyl-6-phenyl-5H-pyrrolo[1,2-c]imidazol-5-yl)-1-(4-phenoxyphenyl)ethan-1-one] | > 500 nM | ≥ 50% | ≥ 50% | ≥ 50% | –
CC1=C(c2ccccc2)C(CC(O)c2ccc(Br)cc2)n2cncc21 (stereo not shown) [Example 52, 1-(4-bromophenyl)-2-(7-methyl-6-phenyl-5H-pyrrolo[1,2-c]imidazol-5-yl)ethan-1-ol] | – | ≤ 50% | ≥ 50% | ≥ 50% | –
CC1=C(c2ccccc2F)C(CC(=O)C2CCC(O)CC2)n2cncc21 (single isomer, unassigned) [Example 98] | – | – | ≥ 50% | – | –
CC1=C(c2ccccc2)C(CC(O)C2CCN(C(=O)c3ccccn3)CC2)n2cncc21 (single isomer, unassigned) [Example 161] | > 500 nM | – | – | – | –
OC(CC1C=C(c2ccccc2)c2cncn21)c1ccccc1 (stereo not shown) [Example 14] | – | – | ≤ 50% | – | –
Cc1ccc(S(=O)(=O)N2CCC3=C(C2)C(CC(=O)c2ccccc2)n2cncc23)cc1 (stereo not shown) [Example 5] | – | – | ≤ 50% | – | –
O=C(CC1C=C(c2ccccc2)c2cncn21)c1ccccc1 (stereo not shown) [Example 13] | – | – | ≤ 50% | – | –
Cc1ccc(S(=O)(=O)N2CCC3=C(C2)C(CC(O)c2ccccc2)n2cncc23)cc1 (stereo not shown) [Example 6] | – | – | ≤ 50% | – | –
CCCNC(=O)CC1C(c2ccccc2)=C(C)c2cncn21 (stereo not shown) [Example 172, 2-(7-Methyl-6-phenyl-5H-pyrrolo[1,2-c]imidazol-5-yl)-N-propylacetamide] | – | ≤ 50% | ≤ 50% | – | –
CC1=C(c2ccccc2)C(CC(O)C2CCC(O)CC2)n2cncc21 (single isomer, unassigned) [Example 122] | < 500 nM | – | – | – | –
CC1=C(c2ccccc2)c2cncn2C1CC(=O)c1ccccc1 (stereo not shown) [Example 21] | – | ≤ 50% | ≤ 50% | – | –

From patent publication US20190031665A1, “DERIVATIVES OF PYRROLOIMIDAZOLE OR ANALOGUES THEREOF WHICH ARE USEFUL FOR THE TREATMENT OF INTER ALIA CANCER” (EMCURE PHARMACEUTICALS LIMITED, priority 2016, published 2019)
